The values that follow come from US11713297B2, “Crystalline form of N-butyldeoxygalactonojirimycin” (IDORSIA PHARMACEUTICALS LTD, priority 2017, dated 2023).

Data set [1] relates to plasma levels of metabolic substrates. The data set is described as follows: Phase Ib study in patients suffering from Fabry disease. In kind it is in vivo. The following applies: on top of enzyme replacement therapy.
Data set [2] is described as follows: Gravimetric vapour sorption (GVS) analysis, hygroscopicity. In kind it is physicochemical. The following applies: crystalline form 1; 25° C.; mass change between 40% and 80% RH in first adsorption scan; European Pharmacopeia 8.0 classification. Here is the method: Gravimetric Vapour Sorption (GVS) Analysis
Measurements were performed on a multi sample instrument SPS-100n (Projekt Messtechnik, Ulm, Germany) operated in stepping mode at 25° C. The sample was allowed to equilibrate at 40% RH before starting a pre-defined humidity program (40-0-95-0-95-40% RH, steps of 5% ΔRH and with a maximal equilibration time of 24 hours per step were applied. About 20 to 30 mg of each sample was used. The hygroscopic classification is done according to the European Pharmacopeia 8.0, e.g., slightly hygroscopic: increase in mass is less than 2% and equal to or greater than 0.2% mass/mass; hygroscopic: increase in mass is less than 15% and equal to or greater than 2% mass/mass. The mass change between 40% relative humidity and 80% relative humidity in the first adsorption scan is considered.

Data set [3] in a line: Thermogravimetric analysis (TGA). In kind it is physicochemical. The settings on record: crystalline form 1; in the range 31.5 to 140° C. On the procedure: Thermogravimetric Analysis (TGA)
TGA data were collected on a Mettler Toledo STARe System (TGA851e module and STAR software version 9.20) equipped with a 34-position auto-sampler. Typically, about 5 mg of a sample, in an automatically pierced aluminium pan, was heated at 10° C. min^−1, unless stated otherwise, from 30° C. to 250° C. A nitrogen purge at 10 ml min^−1 was maintained over the sample.

Data set [4] in a line: Particle size distribution (PSD) by laser diffraction, wet dispersion. In kind it is physicochemical. The settings on record: crystalline form 1; average of at least five crystallization batches, each measured in triplicate. The text has this:
Particle size distributions are defined herein as D10, D50 and D90. D10, D50 and D90 represent the particle diameter corresponding to the respective percentage in volume (i.e. 10%, 50%, 90%) of a given sample which is below the indicated diameter. For example, a D50 from about 70 μm to about 150 μm means that 50% of the volume of a given sample has a diameter which is equal or below a diameter that is in the range between about 70 μm and about 150 μm. Particle size distributions may be determined using standard procedures such as laser diffraction.
Particle Size Distribution (PSD)
PSD measurements were performed by laser-diffraction using a wet dispersion method. Data were collected on a Mastersizer 2000 (Malvern) equipped with a dispersion unit Hydro 2000S in the size range from 0.020 μm to 2000.000 μm. Typically, about 100 mg sample in about 20 ml Tegiloxan 3 (silicon oil, CAS Nr. 9016-00-6) is dispersed in an ultrasonic bad for about 30 s and subsequently added to a prefilled with Tegiloxan 3 dispersion unit until obscuration of about 10% to about 30% is achieved. After a circulation time of 5 min, a sample measurement is performed. Reported particle size values (D10, D50 and D90) represent an average value of 3 measurements.
Particle size measurements of COMPOUND in crystalline form 1 as obtained in Examples 1, 2 and Reference Example 3 are performed using the method described herein. Each data point in Table 3 represents an average value obtained from at least five separate crystallization batches, each measured in triplicate.

In the case of `CCCCN1C[C@H](O)[C@@H](O)[C@@H](O)[C@H]1CO` [COMPOUND, (2R,3S,4R,5S)-1-butyl-2-(hydroxymethyl)piperidine-3,4,5-triol], the “plasma levels of metabolic substrates thought to be related to the development of the disease” value in data set [1] is listed as “marked decrease”. Further, the Hygroscopicity result in data set [2] is “Not hygroscopic”. Further, the TGA mass loss entry in data set [3] is “Mass loss of <0.1% in the range”.
As for `CCCCN1C[C@H](O)[C@@H](O)[C@@H](O)[C@H]1CO` [Example 2, (2R,3S,4R,5S)-1-butyl-2-(hydroxymethyl)piperidine-3,4,5-triol], in data set [4], the D10 is reported as 7 μm, the D50 was 57 μm and the D90 turned out to be 138 μm.
Take `CCCCN1C[C@H](O)[C@@H](O)[C@@H](O)[C@H]1CO` [Reference Example 3, (2R,3S,4R,5S)-1-butyl-2-(hydroxymethyl)piperidine-3,4,5-triol]: in data set [4], the D10 came out at 7 μm, the D50 is 22 μm and the D90 was 42 μm.
